# According to patent EP4385980A1, “INDAZOLES AS INHIBITORS OF NAV1.8” (Grünenthal GmbH, priority 2022, dated 2024):
# Target: T1, human NaV1.8 (Homo sapiens, UniProt Q9Y5Y9)
# T1 construct: expressed in transfected cells; host or cells: HEK
# Assay: Electrophysiology: voltage-clamp recordings (whole-cell automated patch clamp, Qube384)
# Format: cell-based
# Details: HEK-NaV1.8 with b3 recombinant cell line, ambient room temperature, read-out: Potency category (human NaV1.8 IC50)
# Experimental: The following NaV1.8 recombinant cell line was used for recordings: HEK-NaV1.8 (NM_006514.1) with b3 (NM_018400.3).
# Sodium currents were measured using the patch clamp technique in the whole-cell configuration using the Qube384 (Sophion A/S, Copenhagen, Denmark) automated voltage clamp platform. "Multi hole" plates were used for the cell line expressing NaV1.8 while "single hole" plates were used for the recombinant cell lines expressing the other subtypes. Appropriate filters (for minimum seal resistance and minimum current size) and series resistance compensation (for high quality sodium channel recordings) were applied. Data was collected at ambient room temperature.
# The recording […] solution contained (in mM): NaCl 145 mM, KCl 4 mM, CaCl2 2 mM, MgCl2 1 mM, HEPES 10 mM, Glucose 10 mM, pH 7.4 (NaOH). The […] recording solution contained (in mM): CsF 120 mM, CsCl 20 mM, NaCl 10 mM, EGTA 10 mM, HEPES 10 mM, pH 7.2 (CsOH). Currents were recorded at 25 kHz sampling frequency and filtered at 5 kHz. Series resistance compensation was applied at 65%.
# Vehicle (VEH) is the control condition where cells are exposed to 0.3 % DMSO without compound. All runs include VEH controls being exposed to the same voltage protocols to assess non-compound related phenomena such as run down and then used to isolate compound dependent effects on currents.
# To check for state-dependence inhibition, the following voltage-sequence was applied every 20 seconds: From a resting membrane potential of-120 mV, the first test pulse (P1; 20 ms to -10 mV) was applied to check for channels in the Resting State followed by a brief recovery (20 ms to -120 mV), then holding the membrane voltage to V1/2 (4 seconds at voltage to obtain half the channel at Rest and half Inactivated) with a subsequent second test pulse (P2; 20 ms to -10 mV) to check for channels in the Inactivated State, followed by another brief recovery (20 ms to -120 mV) and a final third test pulse (P3; 20 ms to -10 mV) to check for recovered channels.
# To check for frequency-dependent inhibition, a 10 Hz protocol and a 20 Hz protocol were applied; namely,
# From a resting membrane potential of -120 mV, 40-pulses (10 ms to -10 mV) was applied at 10 Hz (at 100 ms between pulses) and then at 20 Hz (at 50 ms between pulses).
# Each parameter was recorded (P1, P2, P3, P40 from 10Hz and P40 from 20Hz) during a control period (lasting ~ 5 minutes) when establishing the baseline and during compound period (lasting ~ 12 minutes) when test compound (or vehicle) was applied. For each parameter, the value at the end of the compound period was normalized to the vehicle baseline; as follows Normalized Inhibition (NormCPD) = (CPD Valueend CPD period)/(VEH Valueend Control Period) [formula]
# To adjust for any variance in the Na^+ current signal during the compound period (owing to cumulative inactivation independent of compound or shifts in biophysics over time), a dedicated segment of the recording wells in each 384 plate were dedicated to having only vehicle exposure. These vehicle-only recordings were used to correct for any apparent "run-up" or "run-down" in the experiment. Normalized Inhibition (NormVEH) = (VEH Valueend CPD period)/(VEH Valueend Control Period) [formula]
# The adjusted inhibition was calculated as follows: % Inhibitioncorrected = 100 × (NormCPD −NormVEH)/(100−NormVEH) [formula]
# Percent inhibition was determined and IC50 values were calculated using a 4 parameter logistic model within XLFit Software (IDBS, Boston MA): % Inhibitioncorrected = A + ((B−A))/((1 + (((x)/(C)))^D) [formula] where A and B are the maximal and minimum inhibition respectively, C is the IC50 concentration and D is the (Hill) slope.
# T1 sequence (Q9Y5Y9 whole entry): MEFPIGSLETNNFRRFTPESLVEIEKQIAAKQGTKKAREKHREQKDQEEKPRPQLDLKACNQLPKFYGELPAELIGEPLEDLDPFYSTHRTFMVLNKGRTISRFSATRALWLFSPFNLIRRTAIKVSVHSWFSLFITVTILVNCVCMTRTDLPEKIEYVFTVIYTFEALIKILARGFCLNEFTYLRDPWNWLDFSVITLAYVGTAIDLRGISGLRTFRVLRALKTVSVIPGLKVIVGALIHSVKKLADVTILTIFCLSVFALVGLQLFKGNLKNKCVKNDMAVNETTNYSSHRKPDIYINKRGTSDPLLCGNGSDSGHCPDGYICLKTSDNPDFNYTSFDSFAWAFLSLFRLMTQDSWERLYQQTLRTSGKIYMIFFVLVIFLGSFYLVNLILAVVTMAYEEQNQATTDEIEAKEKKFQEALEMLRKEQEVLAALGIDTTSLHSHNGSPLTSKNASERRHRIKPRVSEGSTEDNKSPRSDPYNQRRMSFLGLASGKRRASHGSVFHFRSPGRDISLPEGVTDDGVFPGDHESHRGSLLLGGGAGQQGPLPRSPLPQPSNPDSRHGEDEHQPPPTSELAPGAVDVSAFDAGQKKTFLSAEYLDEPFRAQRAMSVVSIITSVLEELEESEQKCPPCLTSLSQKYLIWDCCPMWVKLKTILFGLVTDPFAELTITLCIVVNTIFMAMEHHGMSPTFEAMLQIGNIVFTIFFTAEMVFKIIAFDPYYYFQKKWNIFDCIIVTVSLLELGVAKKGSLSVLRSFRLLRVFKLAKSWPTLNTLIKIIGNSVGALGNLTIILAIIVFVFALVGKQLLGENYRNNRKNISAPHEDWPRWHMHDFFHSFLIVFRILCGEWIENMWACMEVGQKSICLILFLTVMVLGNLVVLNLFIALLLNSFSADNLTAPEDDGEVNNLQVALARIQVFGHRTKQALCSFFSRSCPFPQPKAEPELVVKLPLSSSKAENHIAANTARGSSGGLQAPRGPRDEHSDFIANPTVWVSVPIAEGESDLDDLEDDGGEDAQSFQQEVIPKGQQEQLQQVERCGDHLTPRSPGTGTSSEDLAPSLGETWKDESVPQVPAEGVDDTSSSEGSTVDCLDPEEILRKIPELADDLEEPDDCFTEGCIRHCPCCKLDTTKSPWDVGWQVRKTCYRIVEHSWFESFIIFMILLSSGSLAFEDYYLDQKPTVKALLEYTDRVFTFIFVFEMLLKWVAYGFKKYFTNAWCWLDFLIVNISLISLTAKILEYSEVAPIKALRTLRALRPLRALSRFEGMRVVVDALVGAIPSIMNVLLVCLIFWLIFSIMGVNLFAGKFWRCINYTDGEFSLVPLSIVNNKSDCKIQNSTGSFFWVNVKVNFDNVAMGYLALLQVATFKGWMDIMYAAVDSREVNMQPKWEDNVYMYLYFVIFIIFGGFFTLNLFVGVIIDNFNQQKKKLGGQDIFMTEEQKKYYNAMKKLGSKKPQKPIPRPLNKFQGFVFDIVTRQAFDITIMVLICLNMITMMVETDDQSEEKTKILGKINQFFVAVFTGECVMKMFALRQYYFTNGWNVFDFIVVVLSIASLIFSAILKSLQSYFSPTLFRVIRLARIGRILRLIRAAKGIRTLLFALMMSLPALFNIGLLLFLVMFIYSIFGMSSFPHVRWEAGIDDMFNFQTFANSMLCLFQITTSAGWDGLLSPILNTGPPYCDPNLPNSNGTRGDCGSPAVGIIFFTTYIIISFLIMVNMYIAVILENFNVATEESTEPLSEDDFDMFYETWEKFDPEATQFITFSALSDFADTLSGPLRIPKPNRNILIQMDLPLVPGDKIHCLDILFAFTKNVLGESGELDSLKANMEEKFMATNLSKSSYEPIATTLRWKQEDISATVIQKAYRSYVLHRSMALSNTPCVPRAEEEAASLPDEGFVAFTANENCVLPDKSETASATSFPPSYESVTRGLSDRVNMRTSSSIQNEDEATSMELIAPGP
# T1 sequence (Q9NY72 23-215 partner): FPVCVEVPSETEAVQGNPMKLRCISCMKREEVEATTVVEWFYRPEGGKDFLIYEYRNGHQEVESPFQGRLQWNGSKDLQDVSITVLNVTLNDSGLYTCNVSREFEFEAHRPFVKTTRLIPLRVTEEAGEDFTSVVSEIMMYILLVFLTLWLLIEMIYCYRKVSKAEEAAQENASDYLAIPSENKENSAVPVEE
row,Structure (SMILES),IC50 [nM]
1,"Cc1cccc2c(C(=O)Nc3cccc(S(C)(=O)=O)c3)n(CC3CCCCC3)nc12 [SC-45, 2-(cyclohexylmethyl)-7-methyl-N-(3-methylsulfonylphenyl)indazole-3-carboxamide]",≤ 100
2,"Cc1ccc2nn(CC3CCCCC3)c(C(=O)Nc3cccc(S(C)(=O)=O)c3)c2c1 [SC-46, 2-(cyclohexylmethyl)-5-methyl-N-(3-methylsulfonylphenyl)indazole-3-carboxamide]",100 to 1000
3,"CS(=O)(=O)c1cccc(NC(=O)c2c3c(F)cccc3nn2CC2CCCCC2)c1 [SC-47, 2-(cyclohexylmethyl)-4-fluoro-N-(3-methylsulfonylphenyl)indazole-3-carboxamide]",≤ 100
4,"Cc1ccc2nn(CC3CCCCC3)c(C(=O)Nc3cc[nH]c(=O)c3)c2c1 [SC-48, 2-(cyclohexylmethyl)-5-methyl-N-(2-oxo-1,2-dihydropyridin-4-yl)-2H-indazole-3-carboxamide]",1000 to 10000
5,"O=C(Nc1ccnc(O)c1)c1c2c(F)cccc2nn1CC1CCCCC1 [SC-49, 2-(cyclohexylmethyl)-4-fluoro-N-(2-hydroxypyridin-4-yl)indazole-3-carboxamide]",100 to 1000
6,"O=C(Nc1ccnc(O)c1)c1c2ccccc2nn1CC1CCOC1 (centres unmarked) [SC-50, N-(2-hydroxypyridin-4-yl)-2-(oxolan-3-ylmethyl)indazole-3-carboxamide]",1000 to 10000
7,"O=C(Nc1ccnc(O)c1)c1c2ccccc2nn1CC1CCCCO1 (centres unmarked) [SC-53, N-(2-hydroxypyridin-4-yl)-2-(oxan-2-ylmethyl)indazole-3-carboxamide]",1000 to 10000
8,"CS(=O)(=O)c1cccc(NC(=O)c2c3ccccc3nn2CC2CCOC2)c1 (centres unmarked) [SC-56, N-(3-methylsulfonylphenyl)-2-(oxolan-3-ylmethyl)indazole-3-carboxamide]",1000 to 10000
9,"CS(=O)(=O)c1cccc(NC(=O)c2c3ccccc3nn2CC2CCCCO2)c1 (centres unmarked) [SC-58, N-(3-methylsulfonylphenyl)-2-(oxan-2-ylmethyl)indazole-3-carboxamide]",100 to 1000
10,"CS(=O)(=O)c1cccc(NC(=O)c2c3ccc(F)cc3nn2CC2CCOCC2)c1 [SC-60, 6-fluoro-N-(3-methylsulfonylphenyl)-2-(oxan-4-ylmethyl)indazole-3-carboxamide]",100 to 1000
11,"CS(=O)(=O)c1cccc(NC(=O)c2c3ccc(F)cc3nn2CCC2CCCC2)c1 [SC-61, 2-(2-cyclopentylethyl)-6-fluoro-N-(3-methylsulfonylphenyl)indazole-3-carboxamide]",100 to 1000
12,"CS(=O)(=O)c1cccc(NC(=O)c2c3ccc(F)cc3nn2CC2CC(F)(F)C2)c1 [SC-62, 2-[(3,3-difluorocyclobutyl)methyl]-6-fluoro-N-(3-methylsulfonylphenyl)indazole-3-carboxamide]",100 to 1000
13,"CS(=O)(=O)c1cccc(NC(=O)c2c3ccccc3nn2CC2CCCC2)c1 [SC-67, 2-(cyclopentylmethyl)-7V-(3-methylsulfonylphenyl)indazole-3-carboxamide]",100 to 1000
14,"CC1(C)CC(Cn2nc3cc(F)ccc3c2C(=O)Nc2cccc(S(C)(=O)=O)c2)C1 [SC-68, 2-[(3,3-dimethylcyclobutyl)methyl]-6-fluoro-N-(3-methylsulfonylphenyl)indazole-3-carboxamide]",≤ 100
15,"CS(=O)(=O)c1cccc(NC(=O)c2c3ccc(F)cc3nn2CC2CCC3(CC2)CC3)c1 [SC-70, 6-fluoro-N-(3-methylsulfonylphenyl)-2-(spiro[2.5]octan-6-ylmethyl)indazole-3-carboxamide]",1000 to 10000
16,"O=C(Nc1ccnc(O)c1)c1c2ccc(F)cc2nn1CC1CCCCO1 (centres unmarked) [SC-71, 6-fluoro-N-(2-hydroxypyridin-4-yl)-2-[[oxan-2-yl]methyl]indazole-3-carboxamide]",1000 to 10000
17,"O=C(Nc1ccnc(O)c1)c1c2ccccc2nn1CC1CCCC1 [SC-73, 2-(cyclopentylmethyl)-N-(2-hydroxypyridin-4-yl)indazole-3-carboxamide]",100 to 1000
18,"NC(=O)c1cccc(NC(=O)c2c3ccc(F)cc3nn2CC2CCC(F)(F)CC2)c1 [SC-76, N-(3-Carbamoylphenyl)-2-[(4,4-difluorocyclohexyl)methyl]-6-fluoro-2H-indazole-3-carboxamide]",100 to 1000
19,"CS(=O)(=O)c1cc(NC(=O)c2c3ccccc3nn2CC2CCCCC2)ccc1F [SC-77, 2-(cyclohexylmethyl)-N-(4-fluoro-3-methylsulfonylphenyl)indazole-3-carboxamide]",≤ 100
20,"Cc1cccc2c(C(=O)Nc3cccc(S(N)(=O)=O)c3)n(CC3CCC(F)(F)C3)nc12 (centres unmarked) [SC-80, 2-((3,3-difluorocyclopentyl)methyl)-7-methyl-N-(3-sulfamoylphenyl)-2H-indazole-3-carboxamide]",≤ 100
21,"NS(=O)(=O)c1cccc(NC(=O)c2c3cccc(F)c3nn2CC2CCCC(F)(F)C2)c1 (centres unmarked) [SC-81, 2-((3,3-difluorocyclohexyl)methyl)-7-fluoro-N-(3-sulfamoylphenyl)-2H-indazole-3-carboxamide]",≤ 100
22,"Cc1cccc2nn(CC3CCCCC3)c(C(=O)Nc3cccc(S(C)(=O)=O)c3)c12 [SC-83, 2-(cyclohexylmethyl)-4-methyl-N-(3-(methylsulfonyl)phenyl)-2H-indazole-3-carboxamide]",≤ 100
23,"NS(=O)(=O)c1cccc(NC(=O)c2c3cccc(C4CC4)c3nn2CC2CCOCC2)c1 [SC-85, 7-cyclopropyl-N-(3-sulfamoylphenyl)-2-((tetrahydro-2H-pyran-4-yl)methyl)-2H-indazole-3-carboxamide]",≤ 100
24,"NC(=O)c1cc(NC(=O)c2c3ccc(F)cc3nn2CC2CCCCC2)ccn1 [SC-86, N-(2-carbamoylpyridin-4-yl)-2-(cyclohexylmethyl)-6-fluoro-2H-indazole-3-carboxamide]",≤ 100
25,"NS(=O)(=O)c1cc(NC(=O)c2c3ccc(F)cc3nn2CC2CCCCC2)ccn1 [SC-87, 2-(cyclohexylmethyl)-6-fluoro-N-(2-sulfamoylpyridin-4-yl)-2H-indazole-3-carboxamide]",≤ 100
26,NS(=O)(=O)c1cc(NC(=O)c2c3cccc(C(F)F)c3nn2C[C@H]2CCCCO2)ccn1 [SC-89b],≤ 100
